Experimental data reported in paper PMC11737341, “Cloning and functional verification of Geraniol-10-Hydroxylase gene in Lonicera japonica” (PeerJ, 2025).

Biological target: T1, LjG10H (geraniol 10-hydroxylase) (Lonicera japonica, UniProt U5NH25)
T1 construct: pET32a, N-terminal TRX/His tag kept (band about 72 kDa), E. coli BL21, Ni column
Test: HPLC detection of 10-hydroxygeraniol formed by purified recombinant protein
Format: biochemical
Conditions: 2.5 mmol/L geraniol, 1 mmol/L NADPH with glucose-6-phosphate / G6PDH, FAD, FMN, EDTA, DTT, potassium phosphate pH 7.6, 30 °C, 3 h; no P450 reductase mentioned

T1 sequence (U5NH25 entry or part of it): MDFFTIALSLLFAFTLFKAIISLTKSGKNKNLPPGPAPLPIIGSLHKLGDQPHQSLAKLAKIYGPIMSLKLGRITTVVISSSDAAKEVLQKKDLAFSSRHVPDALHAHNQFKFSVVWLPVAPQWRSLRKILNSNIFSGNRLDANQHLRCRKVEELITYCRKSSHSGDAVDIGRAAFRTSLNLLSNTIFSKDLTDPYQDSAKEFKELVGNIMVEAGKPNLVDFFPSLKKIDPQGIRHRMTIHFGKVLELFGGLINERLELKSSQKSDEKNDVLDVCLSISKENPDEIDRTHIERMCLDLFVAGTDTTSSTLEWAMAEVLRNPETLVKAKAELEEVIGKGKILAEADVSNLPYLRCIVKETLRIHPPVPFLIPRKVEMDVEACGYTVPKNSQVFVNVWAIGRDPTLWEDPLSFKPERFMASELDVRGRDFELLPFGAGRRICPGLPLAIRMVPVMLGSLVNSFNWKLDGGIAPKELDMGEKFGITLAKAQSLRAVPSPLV

Compound: CC(C)=CCC/C(C)=C/CO [geraniol]
- HPLC detection of 10-hydroxygeraniol formed by purified recombinant protein: LjG10H exhibits catalytic activity in the conversion of geraniol to 10-hydroxygeraniol in vitro
